Test results as given in US12522631B2, “Compounds for use in the treatment of liver disease” (The Provost, Fellows, Foundation Scholars, And The Other …, priority 2019, dated 2026).
Counter-ions that a name gives are not always drawn. Like-named read-outs stand apart in the source and are kept apart here.

Key:
[1] = hamsters; cited from earlier work
[2] = compared to ursodeoxycholic acid; cited from earlier work
[3] = oral, rats; cited from earlier work
[4] = tested on: ANIT-induced model of cholangitis; assay: Rat ANIT-induced model of cholangitis; format: in vivo, Sprague-Dawley rats; settings: oral, over a week, 20-30 mg/kg
Protocol: This rat model of cholangitis was employed to assess the efficacy of lead compounds by monitoring aspartate aminotransferase (AST) serum levels and alanine aminotransferase (ALT) serum levels.
Test compounds were to be assessed for their effect on liver damage using this chronic ANIT-induced model of cholangitis. UDCA was tested orally at high dose of 100 mg/kg in order to ensure an effect in the functional model that mimics its clinical effects in cholestasis patients. […] In this case ANIT was added to the chow at 0.1% inducing cholestasis and the compounds were tested by oral administration over the course of a week. Serum liver enzymes AST and ALT were measured as measures of liver damage and cholestasis. In comparison to the UDCA dose, the sulfonamide and triazole were dosed in the range 20-30 mg/kg.

HUH-7 cells [5] = assay: MTT cell viability assay, HUH-7 cells treated with DCA; format: cell-based; settings: 100, 50, 10 μM; 24 h before DCA 200 μM, then co-treated 24 h (FIG. 14b)
Description: (§1) The alamarBlue™ assay uses resazurin-based reagents that function as cell health indicators by using the reducing power of living cells to quantitatively measure viability. Upon entering living cells, resazurin is reduced to resorufin, a compound that is red in color and highly fluorescent. The MTT assay is a colorimetric assay for assessing cell metabolic activity. NAD(P)H-dependent cellular oxidoreductase enzymes may, under defined conditions, reflect the number of viable cells present.

HepG2 cells = assay: alamarBlue cell viability assay, HepG2 cells treated with tunicamycin; format: cell-based
HUH-7 cells [6] = assay: alamarBlue cell viability assay, HUH-7 cells treated with tunicamycin
Description: Tunicamycin is known to induce Endoplasmic Reticulum (ER) stress, resulting ultimately in induction of apopotosis.

HUH-7 cells [7] = assay: alamarBlue cell viability assay, HUH-7 cells treated with DCA; format: cell-based; settings: 24 h before DCA 200 μM, then co-treated 24 h (FIG. 14a); for cytoprotective effect (alamarBlue): 100, 50, 10 μM
Description: as §1, with “The difference between the observed cell viability in each of the assays is a consequence of the different properties measured in each assay. The alamarBlue™” for “The alamarBlue™”

HUH-7 cells [8] = assay: Cytoprotection model: DCA-induced cell death in HUH-7 cells
Protocol: HUH-7 cells were then treated with UDCA and TUDCA in increasing concentration.
HUH-7 cells in culture were then treated with a large library of UDCA 7-analogues to screen for compounds lacking intrinsic toxicity.

HUH-7 liver cancer cells = format: cell-based
Protocol: A model of bile-acid induced liver injury was developed using HUH-7 liver cancer cells growing in culture. These were treated with increasing concentrations of DCA and GCDCA and the effect monitored using cell count on a high content platform (for example on an IN Cell analyser), MTT as a measure of metabolic activity and propidium iodide (PI). PI is normally cell impermeable so cellular staining is used as a way to detect cells with damaged walls. Appearance of PI positive cells soon after treatment with bile acid and PI indicated necrosis possibly through surfactant damage to the cell wall. A reduction in cell number or metabolic activity occurred without significant PI staining is consistent with an apoptotic form of cell death. DCA caused significant cell death in the range 200-500 μM associated with apoptosis because of the low levels of PI staining. […] (See FIG. 3(a) and FIG. 3(b)).

[9] = tested on: hepatocytes in cell culture; settings: in vitro, cited from earlier work
HUH-7 cells [10] = assay: Cytoprotection model: GCDCA-induced cell death in HUH-7 cells; format: cell-based; settings: 24 h pre-treatment, then co-treatment with GCDCA
[11] = cited from earlier work
[12] = 24 h before TM 5 μM, then co-treated 24 h (FIG. 15a)

Molecule: C[C@H](CCC(=O)O)[C@H]1CCC2C3C(CC[C@@]21C)[C@@]1(C)CC[C@@H](O)CC1C[C@]3(C)O (stereo partly drawn)
- resistance to bacterial modification (metabolism) [1]: more resistant than the naturally occurring analogues

Molecule: C[C@H](CCC(=O)O)[C@H]1CCC2C3C(CC[C@@]21C)[C@@]1(C)CC[C@@H](O)CC1[C@@H](C)[C@@H]3O (stereo partly drawn) [6-α-methyl ursodeoxycholic acid]
- metabolic stability [2]: increased metabolic stability compared to ursodeoxycholic acid

Molecule: CC(CCC(=O)O)C1CCC2C3C(O)CC4CC(OS(=O)(=O)O)CCC4(C)C3CCC12C (stereo not drawn) [C-3 sulfate]
- faecal lithocholic acid [3]: increased faecal lithocholic acid significantly

Molecule: CC(CCC(=O)O)C1CCC2C3C(OS(=O)(=O)O)CC4CC(O)CCC4(C)C3CCC12C (stereo not drawn) [C-7 sulfate]
- faecal lithocholic acid/deoxycholic acid ratio [3]: reduced

Molecule: C[C@H](CCC(=O)O)[C@H]1CC[C@H]2[C@@H]3[C@@H](NS(C)(=O)=O)C[C@@H]4C[C@H](O)CC[C@]4(C)[C@H]3CC[C@]12C [Compound 21, 3α-hydroxy-7β-(methanesulfonamido)-5β-cholanoate]
- AST serum levels ([4]; ANIT 0.1% in chow (FIG. 8a)): normalised AST serum levels
- ALT serum levels ([4]; ANIT 0.1% in chow (FIG. 8b)): normalised ALT serum levels
- cytoprotective effect / increase in cell viability (MTT) (HUH-7 cells [5]): significant cytoprotective effect
- cytoprotective effect against tunicamycin (HepG2 cells; 24 h before TM 5 μM, then co-treated 24 h (FIG. 15b)): cytoprotective effect of sulfonamide (21) was also observed
- comparison with UDCA and TUDCA under the same conditions (HepG2 cells; lowest concentration tested of sulfonamide (21)): outperformed all concentrations of UDCA and TUDCA
- cell viability on pre/co-treatment with tunicamycin (HUH-7 cells [6]; [12]): significant increase in cell viability
- concentration giving complete maintenance of cell viability (or effects of similar size) (HUH-7 cells [6]; [12]): 10 µM
- cytoprotective effect (alamarBlue) (HUH-7 cells [7]): significant cytoprotective effect at all concentrations measured
- concentration with almost complete cell viability/cytoprotection (HUH-7 cells [7]): ≥ 50 µM
- concentration range of effective inhibition of DCA-induced cell death (HUH-7 cells [8]; FIG. 7): 10 to 100 µM

Molecule: C[C@H](CCC(=O)O)[C@H]1CC[C@H]2[C@@H]3CC[C@@H]4C[C@H](O)CC[C@]4(C)[C@H]3C[C@H](O)[C@]12C [DCA, deoxycholic acid]
- concentration range causing significant cell death (HUH-7 liver cancer cells; human): 200 to 500 µM

Molecule: CC(CCC(=O)NCC(=O)O)C1CCC2C3C(O)CC4CC(O)CCC4(C)C3CCC12C (stereo not drawn) [GCDCA, glycochenodeoxycholic acid]
- effect on cell viability (HUH-7 liver cancer cells): reduction in cell viability at higher concentration with greater evidence of necrosis

Molecule: C[C@H](CCC(=O)NCCS(=O)(=O)O)[C@H]1CC[C@H]2[C@@H]3[C@@H](O)C[C@@H]4C[C@H](O)CC[C@]4(C)[C@H]3CC[C@]12C [TUDCA, tauroursodeoxycholic acid]
- protective effect in cell-based models ([9]; up to the mM concentration range): weakly but consistently protective
- cytoprotective effect against GCDCA (HUH-7 cells [10]): significant cytoprotective effect
- cytoprotective effect / increase in cell viability (MTT) (HUH-7 cells [5]): significantly lesser degree
- concentration giving complete maintenance of cell viability (or effects of similar size) (HUH-7 cells [6]; [12]): 100 µM
- significant cell death on treatment in increasing concentration (HUH-7 liver cancer cells): did not
- cytoprotective effect (alamarBlue) (HUH-7 cells [7]): less than with UDCA and the sulphonamide (21)
- protective effect when compound withdrawn before DCA (HUH-7 cells [8]; 24 h pre-treatment (UDCA 100 μM, TUDCA 1 mM), withdrawn, then DCA (FIG. 4c)): protective effect of TUDCA was not observed
- cell viability 24 h after DCA, compared to DCA alone (HUH-7 cells [8]; 24 h pre-treatment, then DCA 200 μM added, TUDCA 1 mM, UDCA 100 μM (FIG. 4b)): significant increase in cell viability
- cell viability at 24 h post treatment, combination with DCA (HUH-7 cells [8]; combined with DCA without pre-treatment (FIG. 4a)): did not lead to increased cell viability
- concentration giving statistically significant increase in cell viability (HUH-7 cells [8]; pre-/co-treatment with DCA (FIG. 5a)): ≥ 1 mM

Molecule: C[C@H](CCC(=O)O)[C@H]1CC[C@H]2[C@@H]3[C@@H](O)C[C@@H]4C[C@H](O)CC[C@]4(C)[C@H]3CC[C@]12C [UDCA, ursodeoxycholic acid]
- concentration at which it can contribute to cell death [9]: > 200 µM
- fraction absorbed ([11]; oral administration): 30-60%
- share of absorption occurring in the small intestine ([11]; via passive diffusion): around 80%
- concentration giving complete maintenance of cell viability (or effects of similar size) (HUH-7 cells [6]; [12]): 100 µM
- significant cell death on treatment in increasing concentration (HUH-7 liver cancer cells; human): 300 μM-1 mM
- faecal lithocholic acid [3]: increased faecal lithocholic acid significantly

Molecule: tunicamycin
- decrease in cell viability (alamarBlue) (HUH-7 cells [6]; tunicamycin alone, 5 μM, HUH7): approximately 30%
